Laboratory results taken from ChEMBL document CHEMBL5726561, “Compounds and pharmaceutical compositions thereof for the treatment of inflammatory disorders” (2017).

Target: Autotaxin (Homo sapiens, UniProt Q13822)
Assay: Biochemical Assay: Compound IC50 values are determined in a fluorescent hENPP2 (UniProtKB/SwissProt Sequence ref Q13822) biochemical assay using the fluorogenic autotaxin substrate FS-3 as substrate. FS-3 is a doubly labeled analog of LPC wherein the fluorophore is quenched through intramolecular energy transfer. Without hENPP2, the emission of the probe is quenched. If the substrate is hydrolyzed by hENPP2, the emission of the probe is not quenched anymore resulting in a fluorescence increase. Inhibition of hENPP2 by compounds will result in a decrease of the signal. 10 uL of a dilution series of compound, starting from 20 uM highest concentration, dilution, is added to the wells. hENPP2 is used at a final concentration of 0.4 ug/mL or 0.64 ug/mL (it will be appreciated by the skilled person that the potency read out is independent of the enzyme concentration). The enzyme is diluted in 50 mM Tris-HCl pH 8.0, 250 mM NaCl, 5 mM KCl, 1 mM MgCl2, 1 mM CaCl2, 0.1% fatty acid free BSA in a total volume of 20 uL. Enzyme mixture is added to compounds and the resulting mixture is incubated for 30 min at room temperature under shaking. The reaction is started by the addition of 20 uL of 0.75 uM FS-3 diluted in the same buffer as described above and the mixture is incubated at 30° C. for 30 min. Fluorescence is read on the Envision (Excitation 485 nm, emission 520 nm).

With `CCc1nc2ccc(N3CCC(NC(=O)C4CCOCC4)CC3)nn2c1N(C)c1nc(-c2ccc(F)cc2)cs1` the IC50 was under 1000 nM.
